# Patent publication US7872046B2, “Crystalline form of a (3S)-aminomethyl-5-methyl-hexanoic acid prodrug and methods of use” (Xenoport, Inc., priority 2008, dated 2011)
# Legend:
# [1] = dosed either orally or directly into the colon of a mammal; cited from earlier work
# [2] = Pregabalin pharmacokinetics following intracolonic administration in monkeys (Example 12); format: in vivo, cynomologus monkeys; settings: 10 mg-eq PG/kg
# Protocol: The pharmacokinetics of pregabalin and crystalline calcium (3S)-{[(1R)-isobutanoyloxyethoxy]carbonylaminomethyl}-5-methyl-hexanoate hydrate following intracolonic administration in monkeys was determined.
# A group of four male cynomologus monkeys received an intracolonic dose of pregabalin or crystalline calcium (3S)-{[(1R)-isobutanoyloxyethoxy]carbonylaminomethyl}-5-methyl-hexanoate hydrate (10 mg-eq pregabalin/kg). A 7-day wash-out period was allowed between treatments. Blood samples (300 μL) were collected from all animals prior to dosing and at intervals up to 24 hours post-dosing and immediately quenched in tubes containing K2EDTA to prevent hydrolysis. Two aliquots (100 μL each) were immediately quenched with 300 μL methanol. All quenched blood samples were subsequently analyzed for (3S)-{[(1R)-isobutanoyloxyethoxy]carbonylaminomethyl}-5-methyl-hexanoate free acid and pregabalin using LC-MS/MS.
# Pregabalin was obtained from Teva (Peteh Tiqva, Israel). Crystalline calcium (3S)-{[(1R)-isobutanoyloxyethoxy]carbonylaminomethyl}-5-methyl-hexanoate hydrate was synthesized from commercial pregabalin according to Examples 1-6.
# Cynomologus monkeys (body weight approximately 2.5 kg to 5.0 kg) were used in the study. Monkeys were fasted overnight and for the first 4 hours after dose administration. Water was provided ad libitum. For intracolonic administration, pregabalin or crystalline calcium (3S)-{[(1R)-isobutanoyloxyethoxy]carbonylaminomethyl}-5-methyl-hexanoate hydrate was suspended in 0.5% methylcellulose/0.1% Tween 80 in sodium phosphate buffer at pH 7.4. Blood samples were analyzed and pharmacokinetic analysis performed as described in Example 14.
# (§1) Blood concentration data for all analytes were analyzed by non-compartmental methods using WinNonlin (WinNonlin™ Software, version 5.2, Pharsight Corp. Mountain View, Calif.). Non-compartmental analysis was performed on individual profiles in each animal. All concentration values below the limit of quantitation (BLQ) were treated as 0 (zero) for the pharmacokinetic analysis. Low concentration values at predose were treated as BLQ. Nominal sample collection time points were used for the calculation of pharmacokinetic parameters. All concentration data were plotted using SigmaPlot (SigmaPlot™, Version 9.0, Systat Software Inc., Richmond, Calif.).
# (§2) The maximum concentration (Cmax) and time to Cmax(Tmax) were obtained by observation. The apparent elimination half-life (T1/2) was obtained by linear regression of three or more log-transformed data points in the terminal phase. The area under the concentration versus time curve (AUClast) was obtained by the linear trapezoidal method using concentration data up to the last quantifiable concentration. The AUC value extrapolated to infinity (AUCinf) was calculated as: AUCinf=AUClast+Clast/λz where tlast is the time of the last quantifiable concentration (Clast) and λz is the rate constant of the apparent terminal elimination phase.
# (§3) The bioavailability (F) of pregabalin after extravascular dosing of pregabalin or prodrug was calculated by comparison to data following intravenous administration of pregabalin as follows: F(%)=100×(AUCex/Doseex)/(AUCiv/Doseiv) where AUCex is the area under the pregabalin concentration versus time curve in μg×hr/mL following extravascular administration of pregabalin or crystalline calcium (3S)-{[(1R)-isobutanoyloxyethoxy]carbonylaminomethyl}-5-methyl-hexanoate hydrate formulation; Doseex is the extravascular dose expressed in mg-equivalents of pregabalin/kg body weight; AUCiv is the area under the pregabalin concentration versus time curve in μg×hr/mL following intravenous administration of pregabalin; and Doseiv is the intravenous dose expressed in mg-equivalents of pregabalin/kg body weight.
# [3] = Pregabalin pharmacokinetics following administration of oral tablet formulations in monkeys (Example 14); format: in vivo, cynomolgus monkeys
# Protocol: One group of four male cynomolgus monkeys was used for the study. The mean body weight was approximately 2.9 kg at the start of the study and increased over the 9 months of the study to approximately 3.4 kg. The animals were fasted overnight and for the first 4 hours of the study after administration of each test formulation. Water was provided ad libitum.
# All formulations were evaluated in a single group of four fasted male cynomolgus monkeys with at least 5 days washout between treatments. The IR tablet formulation was administered at 75 mg-eq pregabalin (1 tablet per animal). Three different SR tablet formulations were dosed orally at either 75 mg-eq. pregabalin or 69 mg-eq. pregabalin (1 tablet each per animal).
# Blood samples were obtained from all animals at intervals up to 24 hours post-dosing. Approximately 0.3 mL of blood was collected in pre-chilled K2EDTA tubes containing 0.3 mL of methanol. Within 30 minutes, the blood samples were stored at or below −70° C.
# Quenched blood samples were frozen and stored at −20° C. prior to analysis. Samples were analyzed by a sensitive and specific LC-MS/MS method for simultaneous determination of (3S)-{[(1R)-isobutanoyloxyethoxy]carbonylaminomethyl}-5-methyl-hexanoate free acid and pregabalin concentrations.
# as §1, §2
# as §3, with “weight. […]” for “weight.”
# [4] = Hygroscopicity of solid forms; format: physicochemical; settings: solid material
# [5] = IR tablet, 75 mg-eq PG (22.4 mg-eq PG/kg)
# [6] = SR1 tablet, 75 mg-eq PG (22.3 mg-eq PG/kg)
# [7] = SR2 tablet, 69 mg-eq PG (21.1 mg-eq PG/kg)
# [8] = SR tablet, 75 mg-eq PG (21.7 mg-eq PG/kg)
compound,measurement,setting,value
"CC(C)C[C@H](CNC(=O)OC(C)OC(=O)C(C)C)CC(=O)O (stereo partly drawn) [(1), (3S)-{[1-Isobutanoyloxyethoxy]carbonylaminomethyl}-5-methyl-hexanoic acid]",bioavailability as pregabalin,[1],high bioavailability
"CC(C)C[C@H](CN)CC(=O)O [Pregabalin, (3S)-aminomethyl-5-methyl-hexanoic acid]",AUC(0-inf),"[2]; male, monkey, whole blood, 10 mg/kg, read-out: AUCinf, pregabalin in blood, mean (SD)",3100 ng·h/mL
same,AUC(0-t),"[2]; male, monkey, whole blood, 10 mg/kg, read-out: AUClast, pregabalin in blood, mean (SD)",2200 ng·h/mL
same,Cmax,"[2]; male, monkey, whole blood, 10 mg/kg, read-out: Cmax, pregabalin in blood, mean (SD)",240 ng/mL
same,half-life,"[2]; male, monkey, whole blood, 10 mg/kg, read-out: T1/2, pregabalin in blood, mean (SD) (converted)",6.15 h
same,Tmax,"[2]; male, monkey, whole blood, 10 mg/kg, read-out: Tmax, pregabalin in blood, mean (SD)",0.5 h
same,bioavailability,"[2]; male, monkey, whole blood, other: intracolonic, 8 mg/kg, read-out: F, bioavailability of pregabalin relative to IV pregabalin at 8 mg/kg, mean (SD)",2.7%
same,"F, bioavailability (based on AUClast) relative to AUCinf of intravenous pregabalin at 8 mg/kg, mean (SD)","[3]; LYRICA capsules, 150 mg-eq PG (52.4 mg-eq PG/kg)",41 (9) %
same,AUC(0-t),"[3]; male, cynomolgus monkey, whole blood, LYRICA capsules, 150 mg-eq PG (52.4 mg-eq PG/kg), read-out: AUClast, pregabalin in blood, mean (SD)",188000 ng·h/mL
same,Cmax,"[3]; male, cynomolgus monkey, whole blood, LYRICA capsules, 150 mg-eq PG (52.4 mg-eq PG/kg), read-out: Cmax, pregabalin in blood, mean (SD)",21900 ng/mL
same,Tmax,"[3]; male, cynomolgus monkey, whole blood, LYRICA capsules, 150 mg-eq PG (52.4 mg-eq PG/kg), read-out: Tmax, pregabalin in blood, mean (SD)",3 h
calcium (3S)-{[(1R)-isobutanoyloxyethoxy]carbonylaminomethyl}-5-methyl-hexanoate hydrate [(3a)],"AUCinf, pregabalin in blood, mean (SD)",[2],55.9 (12.1) μg × hr/mL
same,"AUClast, pregabalin in blood, mean (SD)",[2],54.5 (11.3) μg × hr/mL
same,"Cmax, pregabalin in blood, mean (SD)",[2],7.54 (1.89) μg/mL
same,"T1/2, pregabalin in blood, mean (SD)",[2],4.17 (1.15) hr
same,"Tmax, pregabalin in blood, mean (SD)",[2],0.88 (0.25) hr
same,"AUClast, pregabalin in blood, mean (SD)",[3]; [5],163 (25) μg × hr/mL
same,"Cmax, pregabalin in blood, mean (SD)",[3]; [5],19.3 (2.4) μg/mL
same,"F, bioavailability (based on AUClast) relative to AUCinf of intravenous pregabalin at 8 mg/kg, mean (SD)",[3]; [5],82 (13) %
same,"Tmax, pregabalin in blood, mean (SD)",[3]; [5],2.0 (1.4) hr
same,"AUClast, pregabalin in blood, mean (SD)",[3]; [6],104 (16) μg × hr/mL
same,"Cmax, pregabalin in blood, mean (SD)",[3]; [6],7.2 (1.2) μg/mL
same,"F, bioavailability (based on AUClast) relative to AUCinf of intravenous pregabalin at 8 mg/kg, mean (SD)",[3]; [6],52 (6) %
same,"Tmax, pregabalin in blood, mean (SD)",[3]; [6],8.0 (6.9) hr
same,"AUClast, pregabalin in blood, mean (SD)",[3]; [7],70 (1) μg × hr/mL
same,"Cmax, pregabalin in blood, mean (SD)",[3]; [7],5.0 (0.3) μg/mL
same,"F, bioavailability (based on AUClast) relative to AUCinf of intravenous pregabalin at 8 mg/kg, mean (SD)",[3]; [7],35 (9) %
same,"Tmax, pregabalin in blood, mean (SD)",[3]; [7],14.0 (3.5) hr
same,"AUClast, pregabalin in blood, mean (SD)",[3]; [8],137 (40) μg × hr/mL
same,"Cmax, pregabalin in blood, mean (SD)",[3]; [8],13.5 (3.2) μg/mL
same,"F, bioavailability (based on AUClast) relative to AUCinf of intravenous pregabalin at 8 mg/kg, mean (SD)",[3]; [8],70 (16) %
same,"Tmax, pregabalin in blood, mean (SD)",[3]; [8],3.2 (1.5) hr
same,hygroscopicity,[4],hygroscopic
